This is an account of results in patent US20080207708A1, “Oxazole and Thiazole Compounds and Their Use in the Treatment of Pge2 Mediated Disorders” (GLAXO GROUP LIMITED, priority 2005, published 2008).

Structures can show the parent of a compound that is named as a salt.

Assay [1] has as its target T1, EP1 receptors (Homo sapiens, UniProt P34995).
T1 sequence (P34995 1-402): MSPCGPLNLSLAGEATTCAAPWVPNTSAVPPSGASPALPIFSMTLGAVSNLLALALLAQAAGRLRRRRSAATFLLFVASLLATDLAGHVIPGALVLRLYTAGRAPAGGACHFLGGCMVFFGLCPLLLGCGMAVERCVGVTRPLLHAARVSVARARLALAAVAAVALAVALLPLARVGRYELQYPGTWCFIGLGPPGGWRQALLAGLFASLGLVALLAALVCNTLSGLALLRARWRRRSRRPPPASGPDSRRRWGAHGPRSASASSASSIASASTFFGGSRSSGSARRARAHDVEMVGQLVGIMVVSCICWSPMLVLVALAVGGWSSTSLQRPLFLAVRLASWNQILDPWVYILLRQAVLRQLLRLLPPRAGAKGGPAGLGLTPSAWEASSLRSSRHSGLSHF
As to the kind of experiment: Binding assay for the human prostanoid EP1 receptor (competition with [3H]-PGE2). More on the design: expressed in transfected cells; host or cells: CHO-K1 cells, membrane fraction. As to conditions: [3H]-PGE2 competition; averages of a number of experiments; read-out: pIC50 value, binding assay for the human prostanoid EP1 receptor (converted). Put shortly: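 Membranes from CHO-K1 cells stably expressing human EP1 incubated with compounds and [3H]-PGE2 (3 nM final) for 30 min at 30° C in MES buffer with EDTA and MgCl2, pH 6. Bound radioactivity measured after filtration; IC50 from nonlinear fit of specific binding inhibition.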

In assay [2] the target is T1, EP1 receptors. As to the kind of experiment: human EP1 calcium mobilisation assay (CHO-K1 cells, FLIPR, PGE2). The assay is classed as cell-based. Details: expressed in transfected cells; host or cells: CHO-K1 cells, pCIN vector. As to conditions: free bases or sodium salts; averages of a number of experiments; read-out: functional pKi value, human EP1 calcium mobilisation assay (converted). In short, it runs like this: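 CHO-K1 cells stably transfected with human EP1 cDNA, loaded with Fluo-4 AM after 24 h culture at 37° C. Compounds added first, then PGE2; antagonism read as inhibition of PGE2-induced intracellular calcium rise on FLIPR. pIC50 taken as concentration giving half-maximal inhibition, from curve fitting.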

With `CN(C)c1ccc2nc(-c3csc(Cc4cc(Cl)ccc4OCc4ccccc4)n3)[nH]c2n1` [Example 152, 2-[2-({-5-Chloro-2-[(phenylmethyl)oxy]phenyl}methyl)-1,3-thiazol-4-yl]-N,N-dimethyl-1H-imidazo[4,5-b]pyridin-5-amine hydrochloride], the IC50 on EP1 receptors [1] is at most 0.0316 µM. At EP1 receptors [2], the Ki was below 1 µM.
Taken in the same sequence, the figures for `OCCc1ccc2nc(-c3csc(Cc4cc(Cl)ccc4OCc4ccccc4)n3)[nH]c2c1` [Example 153, 2-{2-[2-({5-Chloro-2-[(phenylmethyl)oxy]phenyl}methyl)-1,3-thiazol-4-yl]-1H-benzimidazol-5-yl}ethanol] were at most 0.0316 µM and below 1 µM.
Taken in the same sequence, the figures for `CC(C)COc1ccc(Cl)cc1Cc1nc(-c2nc3ccc(CCO)cc3[nH]2)cs1` [Example 154, 2-{2-[2-({5-Chloro-2-[(2-methylpropyl)oxy]phenyl}methyl)-1,3-thiazol-4-yl]-1H-benzimidazol-5-yl}ethanol] were at most 0.0316 µM and at most 0.0316 µM.
In the same order, the values of `CC(C)COc1ccc(Cl)cc1Cc1nc(-c2nc3cc(F)c(F)cc3[nH]2)cs1` [Example 155, 2-[2-({5-Chloro-2-[(2-methylpropyl)oxy]phenyl}methyl)-1,3-thiazol-4-yl]-5,6-difluoro-1H-benzimidazole] are at most 1 µM and below 1 µM.
`Cc1nnc(-c2csc(Cc3cc(Cl)ccc3OCC(C)C)n2)[nH]1` [Example 158, 3-[2-({5-Chloro-2-[(2-methyl-propyl)oxy]-phenyl}methyl)-1,3-thiazol-4-yl]-5-methyl-1H-1,2,4-triazole]: on EP1 receptors [1], the IC50 was at most 1 µM. Further, the Ki on EP1 receptors [2] was below 1 µM.
In the same order, the values of `Cc1nnc(-c2csc(Cc3cc(Cl)ccc3OCc3ccccc3)n2)[nH]1` [Example 159, 3-[2-({5-Chloro-2-[(phenylmethyl)oxy]phenyl}methyl)-1,3-thiazol-4-yl]-5-methyl-1H-1,2,4-triazole] are at most 1 µM and below 1 µM.
For `Clc1ccc(OCc2ccccc2)c(Cc2nc(-c3cn4ccccc4n3)cs2)c1` [Example 160, 2-[2-({5-Chloro-2-[(phenylmethyl)oxy]phenyl}methyl)-1,3-thiazol-4-yl]imidazo[1,2-a]pyridine], on EP1 receptors [1], the IC50 was at most 1 µM. At EP1 receptors [2], the Ki is below 1 µM.
In the same order, the values of `CC(C)COc1ccc(Cl)cc1Nc1nc(-c2nc3ccccc3[nH]2)cs1` [Example 164, 4-(1H-Benzimidazol-2-yl)-N-{5-chloro-2-[(2-methylpropyl)oxy]phenyl}-1,3-thiazol-2-aminehydrochloride] are at most 0.0316 µM and below 1 µM.
As for `CC(C)COc1ccc(Cl)cc1Nc1nc(-c2nc3ccc(N4CCN(C)CC4)cc3[nH]2)cs1` [Example 165, N-{5-Chloro-2-[(2-methylpropyl)oxy]phenyl}-4-[5-(4-methyl-1-piperazinyl)-1H-benzimidazol-2-yl]-1,3-thiazol-2-aminetrihydrochloride], at EP1 receptors [1], the IC50 is at most 0.0316 µM. Further, the Ki on EP1 receptors [2] was above 1 µM.
With `CC(C)COc1ccc(Cl)cc1Cc1nc(-c2nc3ccc(CCN(C)C)cc3[nH]2)co1` [Example 166, (2-{2-[2-({5-Chloro-2-[(2-methylpropyl)oxy]phenyl}methyl)-1,3-oxazol-4-yl]-1H-benzimidazol-5-yl}ethyl)dimethylamine hydrochloride], the IC50 at EP1 receptors [1] was at most 0.0316 µM. In addition, on EP1 receptors [2], the Ki is below 1 µM.
Consider `CC(C)COc1ccc(Cl)cc1Cc1nc(-c2nc3ccc(CCN4CCN(C)CC4)cc3[nH]2)co1` [Example 167, 2-[2-({5-chloro-2-[(2-methylpropyl)oxy]phenyl}methyl)-1,3-oxazol-4-yl]-5-[2-(4-methyl-1-piperazinyl)ethyl]-1H-benzimidazolehydrochloride], for which the IC50 on EP1 receptors [1] is at most 0.0316 µM. The Ki on EP1 receptors [2] was below 1 µM.
In the same order, the values of `CC(C)COc1ccc(Cl)cc1Cc1nc(-c2nc3ccc(CCN4CCCCC4)cc3[nH]2)co1` [Example 168, 2-[2-({5-chloro-2-[(2-methylpropyl)oxy]phenyl}methyl)-1,3-oxazol-4-yl]-5-[2-(1-piperidinyl)ethyl]-1H-benzimidazolehydrochloride] are at most 0.0316 µM and below 1 µM.
In the same order, the values of `CC(C)COc1ccc(Cl)cc1Cc1nc(-c2nc3ccc(CCN4CCCC4)cc3[nH]2)co1` [Example 169, 2-[2-({5-chloro-2-[(2-methylpropyl)oxy]phenyl}methyl)-1,3-oxazol-4-yl]-5-[2-(1-pyrrolidinyl)ethyl]-1H-benzimidazolehydrochloride] are at most 0.0316 µM and below 1 µM.
As to `CN(C)Cc1ccc2nc(-c3coc(Cc4cc(Cl)ccc4OCc4ccccc4)n3)[nH]c2c1` [Example 170, ({2-[2-({5-chloro-2-[(phenylmethyl)oxy]phenyl}-methyl)-1,3-oxazol-4-yl]-1H-benzimidazol-5-yl}methyl)dimethylaminehydrochloride], the IC50 on EP1 receptors [1] is at most 1 µM. For the same molecule, the Ki on EP1 receptors [2] was below 1 µM.
Regarding `CN1CCN(Cc2ccc3nc(-c4coc(Cc5cc(Cl)ccc5OCc5ccccc5)n4)[nH]c3c2)CC1` [Example 171, 2-[2-({5-chloro-2-[(phenylmethyl)oxy]phenyl}-methyl)-1,3-oxazol-4-yl]-5-[(4-methyl-1-piperazinyl)methyl]-1H-benzimidazolehydrochloride], on EP1 receptors [1], the IC50 is at most 1 µM. Further, the Ki at EP1 receptors [2] was below 1 µM.
In the same order, the values of `Clc1ccc(OCc2ccccc2)c(Cc2nc(-c3nc4ccc(CN5CCCCC5)cc4[nH]3)co2)c1` [Example 172, 2-[2-({5-chloro-2-[(phenylmethyl)oxy]phenyl}-methyl)-1,3-oxazol-4-yl]-5-(1-piperidinylmethyl)-1H-benzimidazolehydrochloride] are at most 1 µM and below 1 µM.
In the same order, the values of `Clc1ccc(OCc2ccccc2)c(Cc2nc(-c3nc4ccc(CN5CCCC5)cc4[nH]3)co2)c1` [Example 173, 2-[2-({5-chloro-2-[(phenylmethyl)oxy]phenyl}-methyl)-1,3-oxazol-4-yl]-5-(1-pyrrolidinylmethyl)-1H-benzimidazolehydrochloride] are at most 1 µM and below 1 µM.
On to `CNCc1ccc2nc(-c3coc(Cc4cc(Cl)ccc4OCC(C)C)n3)[nH]c2c1` [Example 174, ({2-[2-({5-Chloro-2-[(2-methylpropyl)oxy]phenyl}methyl)-1,3-oxazol-4-yl]-1H-benzimidazol-5-yl}methyl)methylaminedihydrochloride], for which the IC50 at EP1 receptors [1] is at most 0.0316 µM. For the same molecule, the Ki on EP1 receptors [2] was below 1 µM.
In the same order, the values of `CC(C)COc1ccc(Cl)cc1Cc1nc(-c2nc3ccc(CN(C)C)cc3[nH]2)co1` [Example 175, ({2-[2-({5-Chloro-2-[(2-methylpropyl)oxy]phenyl}methyl)-1,3-oxazol-4-yl]-1H-benzimidazol-5-yl}methyl)dimethylaminedihydrochloride] are at most 0.0316 µM and below 1 µM.
In the same order, the values of `CC(C)COc1ccc(Cl)cc1Cc1nc(-c2nc3ccc(CN4CCCC4)cc3[nH]2)co1` [Example 176, 2-[2-({5-chloro-2-[(2-methylpropyl)oxy]phenyl}methyl)-1,3-oxazol-4-yl]-5-(1-pyrrolidinylmethyl)-1H-benzimidazoledihydrochloride] are at most 0.0316 µM and below 1 µM.
`CC(C)COc1ccc(Cl)cc1Cc1nc(-c2nc3ccc(CN4CCCCC4)cc3[nH]2)co1` [Example 177, 2-[2-({5-chloro-2-[(2-methylpropyl)oxy]phenyl}methyl)-1,3-oxazol-4-yl]-5-(1-piperidinylmethyl)-1H-benzimidazoledihydrochloride]: the IC50 at EP1 receptors [1] was at most 0.0316 µM. The Ki on EP1 receptors [2] was below 1 µM.
As to `CC(C)COc1ccc(Cl)cc1Cc1nc(-c2nc3ccc(CN4CCN(C)CC4)cc3[nH]2)co1` [Example 178, 2-[2-({5-Chloro-2-[(2-methylpropyl)oxy]phenyl}methyl)-1,3-oxazol-4-yl]-5-[(4-methyl-1-piperazinyl)methyl]-1H-benzimidazoletrihydrochloride], the IC50 on EP1 receptors [1] was at most 0.0316 µM. Moreover, the Ki on EP1 receptors [2] is below 1 µM.
Consider `CNCc1ccc2nc(-c3csc(Nc4cc(Cl)ccc4OCC(C)C)n3)[nH]c2c1` [Example 179, N-{5-Chloro-2-[2-methylpropyl)oxy]phenyl}-4-{5-[(methylamino)methyl]-1H-benzimidazol-2-yl}-1,3-thiazol-2-amine hydrochloride], for which the IC50 on EP1 receptors [1] was at most 0.0316 µM. Moreover, the Ki on EP1 receptors [2] was above 1 µM.
In the same order, the values of `CC(C)COc1ccc(Cl)cc1Nc1nc(-c2nc3ccc(CN(C)C)cc3[nH]2)cs1` [Example 180, N-{5-Chloro-2-[(2-methylpropyl)oxy]phenyl}-4-{5-[(dimethylamino)methyl]-1H-benzimidazol-2-yl}-1,3-thiazol-2-aminehydrochloride] are at most 0.0316 µM and above 1 µM.
